This data set is described as follows: in vitro. To be noted: human, hela cells, % viability.

In general, viability refers to a read-out of living cells in per cent, often relative to untreated cells.

On to `O=C(OCCc1ccncc1)N1CCCC(F)(F)C1` [CBK200157], for which the viability at 28.5 h, 10 µM was 92.2%. On the same count and under the same terms, with `O=C1CC(C(=O)NCc2ccc(-c3csnn3)cc2)c2ccccc21` (centres unmarked) [CBK149301] the figure was 93.1%; with `O=C1Nc2ccc(Br)cc2/C1=C1/SC(=S)N(C(Cc2ccccc2)C(=O)O)C1=O` (centres unmarked) [CBK263521], 95.6%. With `O=C(CSc1nnc(-c2ccccc2)n1C1CCCCC1)Nc1ccc(Cl)cc1Cl` [CBK267424], the viability at 28.5 h, 10 µM was 100%. The same measure, in the same setting: as for `CCOc1cccc(C(=O)NC(=S)Nc2nc(C)c(C(=O)OC)s2)c1` [CBK092056], the figure is 93.6%; as for `O=C(O)CNS(=O)(=O)c1cccc2cccnc12` [CBK034462], 85.9%. `CSCCC(C(=O)O)N1C(=O)c2ccccc2C1=O` (centres unmarked) [CBK218448]: the viability at 28.5 h, 10 µM is 102%. Regarding `COCCNc1nccnc1-c1ccccc1` [CBK088555], the viability at 28.5 h, 10 µM turned out to be 105%. Still for that read-out and setting: as for `Cc1cc(CN(C)Cc2cn(C)c3cc(F)ccc23)n[nH]1` [CBK281710], the figure is 89.6%.

With `O=C(NC1CC1)c1ccc(-c2cnc3[nH]c(=O)n(CC4CCOCC4)c3n2)cc1` [CBK064890], the viability at 28.5 h, 10 µM turned out to be 85.2%. Same read-out and setting: as for `CC(C)CNc1n[nH]c(=S)s1` [CBK016865], the figure is 95.9%. Same read-out and setting: with `Clc1ccc(CN2CCN(c3nccnc3OCC3COc4ccccc4O3)CC2)cc1` (centres unmarked) [CBK082786T] the figure was 101%. For `CC(C(=O)Nc1ccc(F)c(F)c1)n1cc([N+](=O)[O-])cn1` (centres unmarked) [CBK268771], the viability at 28.5 h, 10 µM stood at 92.9%. On the same count and under the same terms, as for `O=C(CCN1C(=O)c2cc(Cl)c(Cl)cc2C1=O)Nc1cccc(-c2cnc3ccccc3n2)c1` [CBK268575], the figure is 114%. The same measure, in the same setting: with `Cc1ccc2[nH]c(SCC(=O)NC3CCCC3)nc2c1` [CBK057983] the figure was 90%; with `COC(=O)c1c(NC(=O)c2ccncc2)sc2c1CCC2` [CBK262637], 88.1%.

Consider `NC1CC(c2cc(NCCCc3nnc4ccccn34)ncn2)C1` (centres unmarked) [CBK307120], for which the viability at 28.5 h, 10 µM came to 104%.

With `COc1ccc(NC(S)=NCCN2CCC(C)CC2)cc1Cl` [CBK267268], the viability at 28.5 h, 10 µM was found to be 84%. For `CC1(C)CCCN(Cc2nnnn2-c2ccc(S(C)(=O)=O)cc2)CC1` [CBK306177], the viability at 28.5 h, 10 µM came to 81.8%. Same read-out and setting: as for `CCCc1cc(=O)[nH]c(N/C(=N/C(=O)c2ccccc2)Nc2ccc3c(c2)OCCO3)n1` [CBK266485], the figure is 99.5%; as for `Cc1cc(C)c(OCCOCCN2CCN(C)CC2)c(Cl)c1` [CBK263744G], 98.6%. Regarding `CCN(CC)CCNC(=O)c1c(C)oc2cc(Br)c(OC)cc12` [CBK018064], the viability at 28.5 h, 10 µM is 87.3%.

As for `CC(=O)Nc1cccc(-c2cnc(N)c(NCc3cccnc3)n2)c1` [CBK063562], the viability at 28.5 h, 10 µM is 103%. As to `CN(C)c1ccc(Nc2cc(-c3ccco3)ncn2)cc1` [CBK090946], the viability at 28.5 h, 10 µM turned out to be 90.3%. Take `COc1ccc(C(=O)N2C[C@@H]3C[C@H](C2)c2ccc(-c4cccnc4)c(=O)n2C3)cc1` [CBK289182]: the viability at 28.5 h, 10 µM turned out to be 86.7%. The same measure, in the same setting: as for `O=C(O)CC1(CC(=O)N2CC[C@H]3NC(=O)N(c4ccc(F)cc4)C(=O)[C@H]32)CCCC1` [CBK289327], the figure is 97.7%; as for `CCCNc1nccnc1-c1ccc(F)c(Cl)c1` [CBK037100], 104%. `COC(=O)C(O)(CC(=O)Nc1ccc(C)c(F)c1)C(F)(F)F` (centres unmarked) [CBK267440]: the viability at 28.5 h, 10 µM is 103%. Take `CCCCCOc1ccc(C2NC(=O)NC2=O)cc1` (centres unmarked) [CBK287865]: the viability at 28.5 h, 10 µM turned out to be 89%.

Take `COc1ccc(CNC(=O)c2sccc2S(=O)(=O)N2CCCCC2)cc1` [CBK305904]: the viability at 28.5 h, 10 µM worked out at 101%. The same measure, in the same setting: as for `CC(C)(C)C(=O)N1CCCC(c2cc3cccnc3[nH]2)C1` (centres unmarked) [CBK284945], the figure is 102%. Consider `COC(=O)[C@H]1CN(C(=O)c2cscn2)C[C@@H]1c1ccc(F)cc1` [CBK283785], for which the viability at 28.5 h, 10 µM is 92.3%. Same read-out and setting: with `Nc1ncc(-c2ccco2)nc1-c1ccc(F)c(Cl)c1` [CBK064013] the figure was 106%; with `Cc1ccc(C(N)=O)c(OCC(=O)N2c3ccccc3CCC2C)c1` (centres unmarked) [CBK295633], 93.8%; with `Cc1cc(C)c(C)c(S(=O)(=O)Nc2ccc(C(=O)NCc3ccccn3)cc2)c1C` [CBK267275], 85.8%.

As to `Cc1noc(C)c1S(=O)(=O)Nc1ccc2cc(Br)cnc2n1` [CBK073893], the viability at 28.5 h, 10 µM was 93.1%.

`COc1ccc(/C=C/C(=O)Nc2cc(S(N)(=O)=O)ccc2C)cc1` [CBK262651]: the viability at 28.5 h, 10 µM was 102%. Same read-out and setting: with `CN1CCC2(CC1)CC(NC(=O)c1ccco1)c1ccccc1O2` (centres unmarked) [CBK283804] the figure was 96.6%. For `CCOC(=O)[C@H]1CN(C(=O)C(C)(C)NC(=O)OC(C)(C)C)C[C@@H]1c1cc2cc(C)ccc2o1` [CBK001599], the viability at 28.5 h, 10 µM turned out to be 91.1%. Still for that read-out and setting: as for `O=C(NC[C@H]1CC[C@H](c2nnc(-c3ccsc3)o2)CC1)C1CC1` [CBK283361], the figure is 85.5%. Still for that read-out and setting: as for `CC(NC(=O)Cn1c(-c2nonc2N)nc2ccccc21)c1ccccc1` (centres unmarked) [CBK266006], the figure is 106%. On to `CCOc1ccc(C2=NN(C(=O)CCC(=O)O)C(c3ccc4nccnc4c3)C2)cc1` (centres unmarked) [CBK296703], for which the viability at 28.5 h, 10 µM came to 103%. For `CN(C)C(=O)c1ccc(-c2ccc3c(c2)COC(C2CCN(C(=O)Cc4ccc(C#N)cc4)CC2)O3)cc1` (centres unmarked) [CBK149760], the viability at 28.5 h, 10 µM turned out to be 107%.

Turning to `Cc1ccc(CN(CCCn2ccnc2)Cc2ccccn2)o1` [CBK283102], the viability at 28.5 h, 10 µM was 106%. Regarding `O=C(NCc1ccco1)c1cccc(Oc2ccccc2)c1` [CBK270333], the viability at 28.5 h, 10 µM worked out at 89.3%. The same measure, in the same setting: as for `CCN(CC)C(=O)c1sc2ccccc2c1Cl` [CBK067853], the figure is 103%. For the compound `Cc1cc(C(F)(F)F)n2nc(C3CCCN3C(=O)C(C)C)cc2n1` (centres unmarked) [CBK284685], the viability at 28.5 h, 10 µM came out at 93%.

Regarding `O=S(=O)(NCc1ccc(C(F)(F)F)c(F)c1)c1cccc2nsnc12` [CBK062113], the viability at 28.5 h, 10 µM was found to be 94.3%. With `CCc1ccc(CNC(=O)Cn2nnc(-c3ccc(CN4CCC(C)CC4)cn3)n2)cc1` [CBK153928C], the viability at 28.5 h, 10 µM stood at 93.6%. On the same count and under the same terms, as for `Cc1cc(Br)ccc1C(=O)N1CC(C(N)=O)CCC1C` (centres unmarked) [CBK305954], the figure is 83.2%; as for `O=C(NC(Cc1ccsc1)c1cccnc1)C1CCOC1` (centres unmarked) [CBK285116], 106%. Still for that read-out and setting: with `O=C(O)c1cccc(S(=O)(=O)Nc2nc3ccc(Cl)cc3s2)c1` [CBK299793] the figure was 103%. `COc1ccc(C(=O)N2CCC(C)CC2)cc1[N+](=O)[O-]` [CBK074341]: the viability at 28.5 h, 10 µM worked out at 93.3%. In the case of `Cc1cn(C(C)(C)C(=O)N2CCOCC2)nc1-c1ccccc1Cl` [CBK005206], the viability at 28.5 h, 10 µM came out at 85.9%. Consider `OC(c1cccs1)C1CCN(Cc2ccc(Cn3cccn3)cc2)CC1` (centres unmarked) [CBK307454], for which the viability at 28.5 h, 10 µM came to 83.6%. On the same count and under the same terms, with `N#Cc1cccc(C(=O)NCCc2cn3c(n2)CCCC3)c1` [CBK305046] the figure was 93.9%; with `O=S(=O)(NC1c2cccc3cccc(c23)C1Sc1ncccn1)c1ccccc1` (centres unmarked) [CBK264706], 103%. Same read-out and setting: as for `Nc1ccc(-c2cn3ccnc3c(NCc3ccccc3)n2)cc1` [CBK066592], the figure is 108%; as for `Cn1c(=O)c2[nH]c(NCCN3CCOCC3)nc2n(C)c1=O` [CBK266189], 98.6%; as for `O=C(Nc1ccc(-c2nc3ccccc3s2)c(O)c1)c1ccc(-c2ccccc2)cc1` [CBK263979], 92.9%. The same measure, in the same setting: as for `Cc1cc(OCC(=O)N2CCCc3c(cnn3C)C2)ccc1Cl` [CBK285277], the figure is 93.3%; as for `CC(C)(C)NC(=O)C1C2CCC3(CC(=O)c4cc(Cl)ccc4O3)C21` (centres unmarked) [CBK284963], 109%.

Regarding `CC(C)(C)NC(=O)COc1ccc(CNCc2ccc(C(=O)O)cc2)cc1` [CBK287204], the viability at 28.5 h, 10 µM worked out at 78.1%. The same measure, in the same setting: with `Cc1nnc(SCC2=NN(c3nc4ccccc4[nH]3)C(=O)C2)s1` [CBK293979] the figure was 108%; with `CC1=C[C@@H](CNC(=O)NC2CCCCC2)[C@H](C(C)C)C[C@H]1CC(=O)O` [CBK289211], 80.3%; with `N#CC1=C(Nc2ccccc2)Oc2cc(N)ccc2C1c1cccnc1` (centres unmarked) [CBK269435], 100%. As to `O=C(COc1ccc(F)cc1)NCc1ccc(-c2csnn2)cc1` [CBK149315], the viability at 28.5 h, 10 µM was 98.3%. The same measure, in the same setting: with `O=C(CCn1c(C(F)(F)F)cc2cccnc21)N1CCOCC1` [CBK284869] the figure was 96.4%.

For the compound `CCN(CC)CCCOC1(C)SC(NC2CCCCCC2)=NC1=O` (centres unmarked) [CBK113510], the viability at 28.5 h, 10 µM was determined as 86.5%. On to `COc1cc(-c2nccnc2NCCc2ccccn2)cc(OC)c1OC` [CBK037307], for which the viability at 28.5 h, 10 µM was 91.4%. On the same count and under the same terms, as for `C[C@@H]1CN(C(=O)OCc2nccn2C)C[C@H](C)O1` [CBK200142], the figure is 103%; as for `Cc1nn(C)c(N2CCNCC2)c1NC(=O)C(C)c1ccccc1` (centres unmarked) [CBK045929T], 108%. Take `CCOc1cc(C=C2C(=O)NC(=S)NC2=O)ccc1OCc1c(C)no[n+]1[O-]` [CBK263468]: the viability at 28.5 h, 10 µM (bulk resorufin, single well) was determined as 99.3%. For the compound `Cc1ccc(-c2csc(C3CN4CCCC4CO3)n2)s1` (centres unmarked) [CBK304113], the viability at 28.5 h, 10 µM came out at 121%. As to `Fc1ccc(-c2cncc(NCc3ccco3)n2)c(F)c1` [CBK065834], the viability at 28.5 h, 10 µM was 91.9%. Regarding `COC(=O)[C@H]1CN(C(=O)C2CC(=O)N(C)C2)C[C@@H]1c1ccc(F)cc1` (some centres unmarked) [CBK283521], the viability at 28.5 h, 10 µM is 93%.

Turning to `Cc1cc(C)nc(SCC(=O)c2ccc(F)cc2)n1` [CBK092116], the viability at 28.5 h, 10 µM was 82.1%. Still for that read-out and setting: as for `O=C(NCc1ccc2c(c1)OCO2)c1ccc(S(=O)(=O)N2CCCC2)cc1` [CBK263590], the figure is 108%; as for `C=CCNS(=O)(=O)c1ccc(NC(=O)Nc2ccc(Cl)cc2)cc1` [CBK269315], 101%.

`CC(C)(C)C1=CC2=NC3(CCCCCCCCCCC3)[C@@H]3C[C@@H](O)[C@@H](O)[C@@H]3N2O1` [CBK303254]: the viability at 28.5 h, 10 µM was 113%.

Values taken from publication PMC12040169 (PLOS Biology, 2025).
